Source: patent US12157730B2, “Heteroaryl derivative, method for producing same, and pharmaceutical composition comprising same as effective component” (VORONOI INC., priority 2019, dated 2024)

Molecular target: T1, Ba/F3 cell EGFR Exon20 ins NPH (Homo sapiens, UniProt P00533, INS773NPH)
T1 construct: expressed in transfected cells; host or cells: Ba/F3
Assay: Ba/F3 cell proliferation suppression, EGFR Exon20 ins NPH
Assay type: cell-based
Details: GI50 class; Ba/F3 cell line with NPH inserted at Exon20 of EGFR; 72 hours
Method in brief: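 After 72 h compound exposure (twelve 3-fold steps, 0.3 nM–50 um final), live cells were measured by CellTiter-Glo luminescence and growth expressed as % of control to derive GI50. Cells were seeded at 3000–5000 per well a day earlier; Ba/F3 medium contained IL-3; three repeats.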

Structure (SMILES): C=CC(=O)Nc1cc(Nc2cc(N3OCC[C@@H]3c3cc(F)ccc3F)ncn2)c(OC)cc1N1CCC(N2CCN(C)CC2)CC1 [compound 765, N-(5-((6-((R)-3-(2,5-difluorophenyl)isoxazolidine-2-yl)pyrimidine-4-yl)amino)-4-methoxy-2-(4-(4-methylpiperazine-1-yl)piperidine-1-yl)phenyl)acrylamide]
- Ba/F3 (NPH) Activity: A (GI50 < 50 nM)

Structure (SMILES): C=CC(=O)Nc1cc(Nc2cc(N3OCC[C@@H]3c3cccc(OC)c3)ncn2)c(OC)cc1N1CCC(N2CCN(C3CC3)CC2)CC1 [Example 65, N-(2-(4-(4-cyclopropylpiperazine-1-yl)piperidine-1-yl)-4-methoxy-5-((6-((R)-3-(3-methoxyphenyl)isoxazolidine-2-yl)pyrimidine-4-yl)amino)phenyl) acrylamide]
- Ba/F3 (NPH) Activity: A (GI50 < 50 nM)

Structure (SMILES): C=CC(=O)Nc1cc(Nc2cc(N3OCC[C@@H]3c3ccc(Cl)c(Cl)c3)ncn2)c(OC)cc1N1CCC(N2CCN(C3CC3)CC2)CC1 [compound 932, N-(2-(4-(4-cyclopropylpiperazine-1-yl)piperidine-1-yl)-5-((6-((R)-3-(3,4-dichlorophenyl)isoxazolidine-2-yl)pyrimidine-4-yl)amino)-4-methoxyphenyl) acrylamide]
- Ba/F3 (NPH) Activity: B (50 nM ≤ GI50 < 500 nM)

Structure (SMILES): C=CC(=O)Nc1cc(Nc2cc(N3OCC[C@@H]3c3cc(F)cc(F)c3)ncn2)c(OC)cc1N1CCN(C)C[C@H]1C [compound 918, N-(5-((6-((R)-3-(3,5-difluorophenyl)isoxazolidine-2-yl)pyrimidine-4-yl)amino)-2-((R)-2,4-dimethylpiperazine-1-yl)-4-methoxyphenyl) acrylamide]
- Ba/F3 (NPH) Activity: A (GI50 < 50 nM)

Structure (SMILES): C=CC(=O)Nc1cc(Nc2cc(N3OCC[C@@H]3c3cc(F)ccc3F)ncn2)c(OC)cc1N1CCC(N2CCC(F)(F)CC2)CC1 [compound 817, N-(2-(4,4-difluoro-[1,4'-bipiperidine]-1'-yl)-5-((6-((R)-3-(2,5-difluorophenyl)isoxazolidine-2-yl)pyrimidine-4-yl)amino)-4-methoxyphenyl) acrylamide]
- Ba/F3 (NPH) Activity: A (GI50 < 50 nM)

Structure (SMILES): C=CC(=O)Nc1cc(Nc2cc(N3OCC[C@@H]3c3cc(F)cc(F)c3)ncn2)c(OC)cc1N1CC[C@@H](N2CCOCC2)C1 [Example 271, N-(5-((6-((R)-3-(3,5-difluorophenyl)isoxazolidine-2-yl)pyrimidine-4-yl)amino)-4-methoxy-2-((R)-3-morpholinopyrolidine-1-yl)phenyl)acrylamide]
- Ba/F3 (NPH) Activity: B (50 nM ≤ GI50 < 500 nM)

Structure (SMILES): C=CC(=O)Nc1cc(Nc2cc(N3OCC[C@@H]3c3ccc(Cl)c(F)c3)ncn2)c(OC)cc1N1CCC(N2CCN(CC)CC2)CC1 [Example 262, N-(5-((6-((R)-3-(4-chloro-3-fluorophenyl)isoxazolidine-2-yl)pyrimidine-4-yl)amino)-2-(4-(4-ethylpiperazine-1-yl)piperidine-1-yl)-4-methoxyphenyl) acrylamide]
- Ba/F3 (NPH) Activity: A (GI50 < 50 nM)

Structure (SMILES): C=CC(=O)Nc1cc(Nc2cc(N3OCC[C@@H]3c3c(F)ccc(F)c3F)ncn2)c(OC)cc1N1CCC(N2CCN(C(C)C)CC2)CC1 [compound 643, N-(2-(4-(4-isopropylpiperazine-1-yl)piperidine-1-yl)-4-methoxy-5-((6-((R)-3-(2,3,6-trifluorophenyl)isoxazolidine-2-yl)pyrimidine-4-yl)amino)phenyl)acrylamide]
- Ba/F3 (NPH) Activity: A (GI50 < 50 nM)

Structure (SMILES): C=CC(=O)Nc1cc(Nc2cc(N3OCC[C@@H]3c3ccc(Cl)cc3F)ncn2)c(OC)cc1N1CCC(N2C[C@@H](C)O[C@@H](C)C2)CC1 [compound 374, N-(5-((6-((R)-3-(4-chloro-2-fluorophenyl)isoxazolidine-2-yl)pyrimidine-4-yl)amino)-2-(4-((2S,6R)-2,6-dimethylmorpholino)piperidine-1-yl)-4-methoxyphenyl) acrylamide]
- Ba/F3 (NPH) Activity: A (GI50 < 50 nM)

Structure (SMILES): C=CC(=O)Nc1cc(Nc2cc(N3OCC[C@H]3Cc3ccccc3)ncn2)c(OC)cc1N1CCOCC1 [compound 966, N-(5-((6-((R)-3-benzylisoxazolidine-2-yl)pyrimidine-4-yl)amino)-4-methoxy-2-morpholinophenyl) acrylamide]
- Ba/F3 (NPH) Activity: C (500 nM ≤ GI50 < 5000 nM)

Structure (SMILES): C=CC(=O)Nc1cc(Nc2cc(N3OCC[C@@H]3c3ccc(F)c(Cl)c3F)ncn2)c(OC)cc1N1CCC(N2CCN(C3CC3)CC2)CC1 [Example 168]
- Ba/F3 (NPH) Activity: A (GI50 < 50 nM)

Structure (SMILES): C=CC(=O)Nc1cc(Nc2cc(N3OCC[C@@H]3c3ccc(C)nc3)ncn2)c(OC)cc1N1CCC(N2CCN(C(C)=O)CC2)CC1 [Example 232, N-(2-(4-(4-acetylpiperazine-1-yl)piperidine-1-yl)-4-methoxy-5-((6-((R)-3-(6-methylpyridine-3-yl)isoxazolidine-2-yl)pyrimidine-4-yl)amino)phenyl) acrylamide]
- Ba/F3 (NPH) Activity: B (50 nM ≤ GI50 < 500 nM)

Structure (SMILES): C=CC(=O)Nc1cc(Nc2cc(N3OCC[C@@H]3c3cccc4ccccc34)ncn2)c(OC)cc1N1CCC(N2CCO[C@H](C)C2)CC1 [compound 536, N-(4-methoxy-2-(4-((R)-2-methylmorpholino)piperidine-1-yl)-5-((6-((R)-3-(naphthalene-1-yl)isoxazolidine-2-yl)pyrimidine-4-yl)amino)phenyl) acrylamide]
- Ba/F3 (NPH) Activity: A (GI50 < 50 nM)

Structure (SMILES): C=CC(=O)Nc1cc(Nc2cc(N3OCC[C@@H]3c3cccc(F)c3)ncn2)c(OC)cc1N1CC[C@H](N2CCOCC2)C1 [compound 321, N-(5-((6-((R)-3-(3-fluorophenyl)isoxazolidine-2-yl)pyrimidine-4-yl)amino)-4-methoxy-2-((S)-3-morpholinopyrolidine-1-yl)phenyl)acrylamide]
- Ba/F3 (NPH) Activity: B (50 nM ≤ GI50 < 500 nM)

Structure (SMILES): C=CC(=O)Nc1cc(Nc2cc(N3OCC[C@@H]3c3cc(F)cc(Cl)c3)ncn2)c(OC)cc1N1CCC(N(C)C)CC1 [compound 627, N-(5-((6-((R)-3-(3-chloro-5-fluorophenyl)isoxazolidine-2-yl)pyrimidine-4-yl)amino)-2-(4-(dimethylamino)piperidine-1-yl)-4-methoxyphenyl) acrylamide]
- Ba/F3 (NPH) Activity: A (GI50 < 50 nM)

Structure (SMILES): C=CC(=O)Nc1cc(Nc2cc(N3OCC[C@@H]3c3cccc(F)c3Cl)ncn2)c(OC)cc1N1CCC(N2CCN(C3CC3)C[C@H]2C)CC1 [Example 143, N-(5-((6-((R)-3-(2-chloro-3-fluorophenyl)isoxazolidine-2-yl)pyrimidine-4-yl)amino)-2-(4-((R)-4-cyclopropyl-2-methylpiperazine-1-yl)piperidine-1-yl)-4-methoxyphenyl) acrylamide]
- Ba/F3 (NPH) Activity: A (GI50 < 50 nM)

Structure (SMILES): C=CC(=O)Nc1cc(Nc2cc(N3OCC[C@@H]3Cc3cccc(Cl)c3Cl)ncn2)c(OC)cc1N1CCN(C)CC1 [compound 983, N-(5-((6-((S)-3-(2,3-dichlorobenzyl)isoxazolidine-2-yl)pyrimidine-4-yl)amino)-4-methoxy-2-(4-methylpiperazine-1-yl)phenyl)acrylamide]
- Ba/F3 (NPH) Activity: A (GI50 < 50 nM)

Structure (SMILES): C=CC(=O)Nc1cc(Nc2cc(N3OCC[C@]3(C)c3ccccc3)ncn2)c(OC)cc1N1CCC(N2C[C@H]3C[C@@H]2CO3)CC1 [Example 270, N-(2-(4-((1R,4R)-2-oxa-5-azabicyclo[2.2.1]heptane-5-yl)piperidine-1-yl)-4-methoxy-5-((6-((R)-3-methyl-3-phenylisoxazolidine-2-yl)pyrimidine-4-yl)amino)phenyl) acrylamide]
- Ba/F3 (NPH) Activity: B (50 nM ≤ GI50 < 500 nM)
